Target: T1, human TLR8 (Homo sapiens, UniProt Q9NR97)
T1 sequence (Q9NR97 27-1041): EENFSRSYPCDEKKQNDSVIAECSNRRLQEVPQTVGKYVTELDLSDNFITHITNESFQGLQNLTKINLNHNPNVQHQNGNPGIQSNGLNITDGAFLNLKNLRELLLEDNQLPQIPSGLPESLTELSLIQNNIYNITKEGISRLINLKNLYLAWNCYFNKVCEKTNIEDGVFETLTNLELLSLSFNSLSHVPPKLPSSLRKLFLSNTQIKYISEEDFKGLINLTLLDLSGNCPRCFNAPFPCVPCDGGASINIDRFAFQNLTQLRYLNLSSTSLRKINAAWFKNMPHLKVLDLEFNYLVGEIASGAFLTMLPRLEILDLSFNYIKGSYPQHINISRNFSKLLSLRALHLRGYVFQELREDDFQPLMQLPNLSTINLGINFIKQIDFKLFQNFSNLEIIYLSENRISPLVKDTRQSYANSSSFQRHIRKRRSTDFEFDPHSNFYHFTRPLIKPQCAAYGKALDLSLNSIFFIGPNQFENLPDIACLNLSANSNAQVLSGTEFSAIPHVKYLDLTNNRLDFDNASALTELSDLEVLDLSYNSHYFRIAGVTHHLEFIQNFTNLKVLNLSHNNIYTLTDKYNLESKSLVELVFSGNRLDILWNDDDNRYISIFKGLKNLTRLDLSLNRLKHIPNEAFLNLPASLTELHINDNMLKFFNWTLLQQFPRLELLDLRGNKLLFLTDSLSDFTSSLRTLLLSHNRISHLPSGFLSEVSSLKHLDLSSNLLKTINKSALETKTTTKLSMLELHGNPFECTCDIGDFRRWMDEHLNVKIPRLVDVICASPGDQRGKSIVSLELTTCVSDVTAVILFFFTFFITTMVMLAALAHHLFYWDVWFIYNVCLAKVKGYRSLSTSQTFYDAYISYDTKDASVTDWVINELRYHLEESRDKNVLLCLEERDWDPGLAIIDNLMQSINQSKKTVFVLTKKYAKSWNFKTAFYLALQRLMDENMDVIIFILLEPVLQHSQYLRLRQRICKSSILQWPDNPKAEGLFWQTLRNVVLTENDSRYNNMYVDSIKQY
Assay: HEK293-Blue-hTLR-8 cells assay
Assay type: cell-based
Details: HEK293-Blue-hTLR8 cells, SEAP reporter, R848 stimulation, 20 hrs
Description: HEK293-Blue-hTLR-8 Cells Assay:
A stable HEK293-Blue-hTLR-8 cell line was purchased from InvivoGen (Cat. #: hkb-htlr8, San Diego, Calif., USA). These cells were originally designed for studying the stimulation of human TLR8 by monitoring the activation of NF-κB. A SEAP (secreted embryonic alkaline phosphatase) reporter gene was placed under the control of the IFN-β minimal promoter fused to five NF-κB and AP-1-binding sites. The SEAP was induced by activating NF-κB and AP-1 via stimulating HEK-Blue hTLR8 cells with TLR8 ligands. Therefore the reporter expression was declined by TLR8 antagonist under the stimulation of a ligand, such as R848, for incubation of 20 hrs. The cell culture supernatant SEAP reporter activity was determined using QUANTI-Blue™ kit (Cat. #: rep-qb1, Invivogen, San Diego, Ca, USA) at a wavelength of 640 nm, a detection medium that turns purple or blue in the presence of alkaline phosphatase.
HEK293-Blue-hTLR8 cells were incubated at a density of 250,000-450,000 cells/mL in a volume of 170 μL in a 96-well plate in Dulbecco's Modified Eagle's medium (DMEM) containing 4.5 g/L glucose, 50 U/mL penicillin, […], […], 2 mM L-glutamine, 10% (v/v) heat-inactivated fetal bovine serum with addition of 20 μL test compound in a serial dilution in the presence of final DMSO at 1% and 10 sL of 60 uM R848 in above DMEM, perform incubation under 37° C. in a CO2 incubator for 20 hrs. Then 20 μL of the supernatant from each well was incubated with 180 sL Quanti-blue substrate solution at 37° C. for 2 hrs and the absorbance was read at 620˜655 nm using a spectrophotometer. The signalling pathway that TLR8 activation leads to downstream NF-κB activation has been widely accepted, and therefore similar reporter assay was modified for evaluating TLR8 antagonist.

Compound	IC50
CN1CCC(NC(=O)[C@@H]2CN(c3ccc(C#N)c4ncccc34)C[C@H]2C(F)F)CC1 (relative stereo) [Example 40, Trans-1-(8-cyano-5-quinolyl)-4-(difluoromethyl)-N-(1-methyl-4-piperidyl)pyrrolidine-3-carboxamide]	134 nM
CC[C@@H]1CN(c2ccc(C#N)c3ncccc23)C[C@H]1C(=O)NC1CCN(C)CC1 (relative stereo) [Example 29, Trans-1-(8-cyano-5-quinolyl)-4-ethyl-N-(1-methyl-4-piperidyl)pyrrolidine-3-carboxamide]	96 nM
O=C(NC1C2CCCC1CNC2)C1CN(c2ccc(C(F)(F)F)c3nccnc23)CC12CC2 (stereo not shown) [Example 8, N-(3-azabicyclo[3.3.1]nonan-9-yl)-5-[8-(trifluoromethyl)quinoxalin-5-yl]-5-azaspiro[2.4]heptane-7-carboxamide]	216 nM
O=C(NC1CC2CCCC(C1)N2)C1CN(c2ccc(C(F)(F)F)c3nccnc23)CC12CC2 (stereo not shown) [Example 10, N-(9-azabicyclo[3.3.1]nonan-3-yl)-5-[8-(trifluoromethyl)quinoxalin-5-yl]-5-azaspiro[2.4]heptane-7-carboxamide]	245 nM
C[C@H]1CN(c2ccc(C(F)(F)F)c3nccnc23)C[C@@H]1C(=O)NC1CCN(C)CC1 [Example 5, (3R,4R)-4-methyl-N-(1-methyl-4-piperidyl)-1-[8-(trifluoromethyl)quinoxalin-5-yl]pyrrolidine-3-carboxamide]	11 nM
N#Cc1ccc(N2CC(C(=O)NC3CCCNCC3)C(C(F)(F)F)C2)c2cccnc12 (single isomer, unassigned) [Example 30A, N-(azepan-4-yl)-1-(8-cyano-5-quinolyl)-4-(trifluoromethyl)pyrrolidine-3-carboxamide]	67 nM
CN1CCC(NC(=O)C2CN(c3ccc(C#N)c4nccnc34)CC23CC3)CC1 (single isomer, unassigned) [Example 7B, 5-(8-Cyanoquinoxalin-5-yl)-N-(1-methyl-4-piperidyl)-5-azaspiro[2.4]heptane-7-carboxamide]	26 nM
C[C@H]1CN(c2ccc(C#N)c3nccnc23)C[C@@H]1C(=O)NC1CCN(C)CC1 [Example 3, (3R,4R)-1-(8-cyanoquinoxalin-5-yl)-4-methyl-N-(1-methyl-4-piperidyl)pyrrolidine-3-carboxamide]	5 nM
NC1CC2(C1)CC(NC(=O)C1CN(c3ccc(C(F)(F)F)c4nccnc34)CC13CC3)C2 (stereo not shown) [Example 22, N-(6-aminospiro[3.3]heptan-2-yl)-5-[8-(trifluoromethyl)quinoxalin-5-yl]-5-azaspiro[2.4]heptane-7-carboxamide]	65 nM
O=C(NC1C2CCC1CNC2)C1CN(c2ccc(C(F)(F)F)c3nccnc23)CC12CC2 (stereo not shown) [Example 12, N-(3-azabicyclo[3.2.1]octan-8-yl)-5-[8-(trifluoromethyl)quinoxalin-5-yl]-5-azaspiro[2.4]heptane-7-carboxamide]	227 nM
CN1CCCC(CNC(=O)C2CN(c3ccc(C#N)c4ncccc34)CC23CC3)C1 (stereo not shown) [Example 51, 5-(8-Cyano-5-quinolyl)-N-[(1-methyl-3-piperidyl)methyl]-5-azaspiro[2.4]heptane-7-carboxamide]	398 nM
CN1CC(NC(=O)C2CN(c3ccc(C(F)(F)F)c4nccnc34)CC23CC3)C2(CC2)C1 (stereo not shown) [Example 20, N-(5-methyl-5-azaspiro[2.4]heptan-7-yl)-5-[8-(trifluoromethyl)quinoxalin-5-yl]-5-azaspiro[2.4]heptane-7-carboxamide]	369 nM
NC1CC(CNC(=O)C2CN(c3ccc(C(F)(F)F)c4nccnc34)CC23CC3)C1 (stereo not shown) [Example 31, N-[(3-aminocyclobutyl)methyl]-5-[8-(trifluoromethyl)quinoxalin-5-yl]-5-azaspiro[2.4]heptane-7-carboxamide]	167 nM
C[C@@H]1CN(c2ccc(C(F)(F)F)c3nccnc23)C[C@H]1C(=O)NC1CCN(C)CC1 [Example 25, (3S,4S)-4-Methyl-N-(1-methyl-4-piperidyl)-1-[8-(trifluoromethyl)quinoxalin-5-yl]pyrrolidine-3-carboxamide]	152 nM
N#Cc1ccc(N2CC(C(=O)NCC3CNCCO3)C3(CC3)C2)c2nccnc12 (stereo not shown) [Example 13, 5-(8-Cyanoquinoxalin-5-yl)-N-(morpholin-2-ylmethyl)-5-azaspiro[2.4]heptane-7-carboxamide]	48 nM
CN1CCC(NC(=O)C2CN(c3ccc(C#N)c4ncccc34)CC23CC3)CC1 (single isomer, unassigned) [Example 41A, 5-(8-Cyano-5-quinolyl)-N-(1-methyl-4-piperidyl)-5-azaspiro[2.4]heptane-7-carboxamide]	191 nM
CN1CCC(NC(=O)[C@@H]2CN(c3ccc(C#N)c4ncccc34)C[C@H]2C2CC2)CC1 (relative stereo) [Example 14, Trans-1-(8-cyano-5-quinolyl)-4-cyclopropyl-N-(1-methyl-4-piperidyl)pyrrolidine-3-carboxamide]	193 nM
N[C@@H]1C[C@H](NC(=O)C2CN(c3ccc(C(F)(F)F)c4nccnc34)CC23CC3)[C@@H]2C[C@@H]21 (stereo partly drawn) [Example 36, N-[(1R,2S,4R,5S)-4-amino-2-bicyclo[3.1.0]hexanyl]-5-[8-(trifluoromethyl)quinoxalin-5-yl]-5-azaspiro[2.4]heptane-7-carboxamide]	251 nM
C[C@H]1CN(c2ccc(C#N)n3nccc23)C[C@@H]1C(=O)NC1CCN(C)CC1 [Example 44, (3R,4R)-1-(7-cyanopyrazolo[1,5-a]pyridin-4-yl)-4-methyl-N-(1-methyl-4 piperidyl)pyrrolidine-3-carboxamide]	404 nM
CN1CCC(NC(=O)[C@H]2CN(c3ccc(C(F)(F)F)c4nccnc34)C[C@@H]2C(F)(F)F)CC1 [Example 2, (3R,4R)—N-(1-methyl-4-piperidyl)-4-(trifluoromethyl)-1-[8-(trifluoromethyl)quinoxalin-5-yl]pyrrolidine-3-carboxamide]	18 nM
C[C@H]1CN(c2ccc(C#N)c3ncccc23)C[C@@H]1C(=O)NC1CCN(C)CC1 [Example 16, (3R,4R)-1-(8-cyano-5-quinolyl)-4-methyl-N-(1-methyl-4-piperidyl)pyrrolidine-3-carboxamide]	72 nM
C[C@H]1CN(c2ccc([N+](=O)[O-])c3ncccc23)C[C@@H]1C(=O)NC1CCN(C)CC1 [Example 27, (3R,4R)-4-Methyl-N-(1-methyl-4-piperidyl)-1-(8-nitro-5-quinolyl)pyrrolidine-3-carboxamide]	52 nM
C[C@H]1CN(c2ccc(C#N)c3nccnc23)C[C@@H]1C(=O)NC1CCN(C2CCNCC2)CC1 [Example 60, (3R,4R)-1-(8-cyanoquinoxalin-5-yl)-4-methyl-N-[1-(4-piperidyl)-4-piperidyl]pyrrolidine-3-carboxamide]	48 nM
CN1CCC(NC(=O)[C@H]2CN(c3ccc(C#N)c4nccnc34)C[C@@H]2C(F)(F)F)CC1 [Example 1, (3R,4R)-1-(8-cyanoquinoxalin-5-yl)-N-(1-methyl-4-piperidyl)-4-(trifluoromethyl) pyrrolidine-3-carboxamide]	13 nM
N#Cc1ccc(N2C[C@H](C(=O)NC3CCN(C4CCNCC4)CC3)[C@@H](C(F)(F)F)C2)c2nccnc12 [Example 35, (3R,4R)-1-(8-Cyanoquinoxalin-5-yl)-N-[1-(4-piperidyl)-4-piperidyl]-4-(trifluoromethyl)pyrrolidine-3-carboxamide]	38 nM
